Laboratory results taken from paper PMC9641905, “Synthesis, biological evaluation and molecular docking of new triphenylamine-linked pyridine, thiazole and pyrazole analogues as anticancer agents” (BMC Chemistry, 2022).
pIC50: −log10 of the molar value.

Columns and labels:
[1] = tested on: A-549 cell line; assay: MTT cytotoxicity assay, A-549 lung cancer cell line; format: cell-based, human; conditions: lung cancer cells
Experimental: (§1) The lung cancer A-549 and the breast cancer MDA-MB-231 cell lines were obtained from the viscera Tissue Culture Unit. The cells were spread in Dulbecco’s modified Eagle’s medium (DMEM) supplemented with 10% heat-inactivated fetal bovine serum, 1% L-glutamine, HEPES buffer, and 50 µg/mL gentamycin. All cells were maintained at 37 °C in a humidified atmosphere with 5% CO2 and were sub-cultured two times a week.
(§2) The MTT assay was applied to determine the cytotoxicity of pyridine and thiazole derivatives. MTT or 3-(4,5-dimethylthiazol-2-yl)-2,5-diphenyltetrazolium bromide was purchased from Serva, Germany. The cell lines were introduced into 96-well plates at a cell concentration of 1 × 10^4 cells per well in 100 μL of complete medium (tests were done in duplicates). These plates were incubated for 24 h, 5% CO2, at 37 °C for settle down and adhesion. Control cells were incubated without the test sample and with or without DMSO. After incubation, different concentrations of samples were added after the period of incubation (48 h), media were inhaled, and the MTT solution was added to all wells for full 30 min. Briefly, the media was extracted from the 96 well plates and exchanged with 100 µl of fresh culture RPMI 1640 medium without phenol red then 10 µl of the 12 mM MTT stock solution (5 mg of MTT in 1 mL of PBS) to all wells inclusive the untreated controls. The 96 well plates were incubated at 37 °C and 5% CO2 for 4 h. An 85 µl aliquot of the media was taken away from the wells, added 50 µl of DMSO to all wells and mixed thoroughly, and incubated at 37 °C for 10 min. The absorbance of plates was measured after shaking on a microplate reader (TECAN, Inc.), using a test wavelength of 590 nm. Measure the optical density by the microplate reader to calculate the number of viable cells and the percentage of viability according to [(ODt/ODc)] × 100% where ODt (optical density of cells treated) with the tested sample and ODc (optical density of control cells).
(§3) In the vitro cytotoxic activity of triphenylamine-based pyridine, thiazole, pyrazole and/or isoxazole derivatives was estimated against two cell lines as lung cancer (A-549) and mammary gland breast cancer cell line (MDA-MB-231) by using MTT assay according to reported method. Cisplatin is one of the common alkylation agents was selected to be the reference drug. From graphic plots of the dose response curve determine the 50% inhibitory concentration (IC50) (Fig. 2).

[2] = tested on: MDA-MB-231 cell line; assay: MTT cytotoxicity assay, MDA-MB-231 breast cancer cell line; format: cell-based, human; conditions: breast cancer cells
Experimental: as §1, §2, §3

[3] = tested on: human lung fibroblast noncancerous cell line (MRC-5); assay: MTT cytotoxicity assay against normal cells (MRC-5); format: cell-based; conditions: normal human lung fibroblasts
Experimental: as §2
(§4) The MTT assay was applied to determine the cytotoxicity of pyridine and thiazole derivatives against normal cell line to explore the selectivity of the tested compounds against tumor cells. The cytotoxicity was tested against human lung fibroblast noncancerous cell line (MRC-5).

[4] = as above; format: cell-based; conditions: MRC-5 cells (normal lung fibroblasts), normal human lung fibroblasts, read-out: CC50 MRC-5 cell line
Experimental: as §2, §4

melting point [°C] | Compound | pIC50 ([1]; 48 h) | pIC50 ([2]; 48 h) | CC50 [3] [nM] | pIC50 ([1]; Homo sapiens, A549, 48 h) | pIC50 ([2]; Homo sapiens, MDA-MB-231, 48 h) | CC50 at 48 h [4] [nM]
 | 6-Amino-1-(p-anisyl)-4-(4-(diphenylamino)phenyl)-2-oxo-1,2-dihydropyridine-3,5-dicarbonitrile [4c] | 6.81 | 6.71 | 864 |  |  | 
 | N#Cc1c(-c2ccc(N(c3ccccc3)c3ccccc3)cc2)c(C#N)c(=O)n(-c2ccccc2)c1N [4a, 6-Amino-4-(4-(diphenylamino)phenyl)-2-oxo-1-phenyl-1,2-dihydropyridine-3,5-dicarbonitrile] |  |  |  | 7.33 | 7.26 | 137
 | Cc1ccc(-n2c(N)c(C#N)c(-c3ccc(N(c4ccccc4)c4ccccc4)cc3)c(C#N)c2=O)cc1 [4b, 6-Amino-4-(4-(diphenylamino)phenyl)-2-oxo-1-(p-tolyl)-1,2-dihydropyridine-3,5-dicarbonitrile] |  |  |  | 8.10 | 7.99 | 97.1
 | CN(C)c1ccc(-n2c(N)c(C#N)c(-c3ccc(N(c4ccccc4)c4ccccc4)cc3)c(C#N)c2=O)cc1 [4d, 6-Amino-1-(4-(dimethylamino)phenyl)-4-(4-(diphenylamino)phenyl)-2-oxo-1,2-dihydropyridine-3,5-dicarbonitrile] |  |  |  | 6.63 |  | 1100
 | N#Cc1c(-c2ccc(N(c3ccccc3)c3ccccc3)cc2)c(C#N)c(=O)n(-c2ccc([N+](=O)[O-])cc2)c1N [4e, 6-Amino-4-(4-(diphenylamino)phenyl)-1-(4-nitrophenyl)-2-oxo-1,2-dihydropyridine-3,5-dicarbonitrile] |  |  |  | 8.02 | 7.83 | 82.3
 | CCN(CC)c1ccc(NC(=O)C(C#N)=c2sc(=O)c(=Cc3ccc(N(c4ccccc4)c4ccccc4)cc3)n2-c2ccccc2)cc1 [6a, 2-Cyano-N-(4-(diethylamino)phenyl)-2-(4-(4-(diphenylamino)benzylidene)-5-oxo-3-phenylthiazolidin-2-ylidene)acetamide] |  |  |  | 6.85 | 6.76 | 985
 | CN(C)c1ccc(NC(=O)C(C#N)=c2sc(=O)c(=Cc3ccc(N(c4ccccc4)c4ccccc4)cc3)n2-c2ccccc2)cc1 [6b, 2-Cyano-N-(4-(dimethylamino)phenyl)-2-(4-(4-(diphenylamino)benzylidene)-5-oxo-3-phenylthiazolidin-2-ylidene)acetamide] |  |  |  | 7.10 | 6.91 | 768
 | Cc1ccc(NC(=O)C(C#N)=c2sc(=O)c(=Cc3ccc(N(c4ccccc4)c4ccccc4)cc3)n2-c2ccccc2)cc1 [6c, 2-Cyano-2-(4-(4-(diphenylamino)benzylidene)-5-oxo-3-phenylthiazolidin-2-ylidene)-N-(p-tolyl)acetamide] |  |  |  | 7.31 | 7.29 | 143
 | COc1ccc(NC(=O)C(C#N)=c2sc(=O)c(=Cc3ccc(N(c4ccccc4)c4ccccc4)cc3)n2-c2ccccc2)cc1 [6d, 2-Cyano-2-(4-(4-(diphenylamino)benzylidene)-5-oxo-3-phenylthiazolidin-2-ylidene)-N-(4-methoxyphenyl)acetamide] |  |  |  | 7.02 | 6.86 | 683
 | N.N.[Cl][Pt][Cl] [Cisplatin, reference compound] | 7.61 | 7.92 |  |  |  | 
250 to 252 | CCOC(=O)C=c1sc(=Cc2ccc(N(c3ccccc3)c3ccccc3)cc2)c(=O)n1-c1ccccc1 [compound 8, ethyl-2-(5-(4-(diphenylamino)benzylidene)-4-oxo-3-phenylthiazolidin-2-ylidene)acetate] |  |  |  | 6.66 | 6.87 | 1100
182 to 184 | CC1=NN(c2ccccc2)C(=O)C1=Cc1ccc(N(c2ccccc2)c2ccccc2)cc1 [compound 9, 4-(4-(Diphenylamino)benzylidene)-5-methyl-2-phenyl-2,4-dihydro-3H-pyrazol-3-one] |  |  |  | 6.90 | 6.57 | 1300
218 to 220 | O=C1ON=C(c2ccccc2)C1=Cc1ccc(N(c2ccccc2)c2ccccc2)cc1 [compound 10, 4-(4-(Diphenylamino)benzylidene)-3-phenylisoxazol-5(4H)-one] |  |  |  | 6.89 | 6.95 | 973
